According to BigSolDB 2.1:

Cc1nc(N)nc(N)n1
solubility (mole fraction)
Details	283.15 K	288.15 K	293.15 K	298.15 K	303.15 K	308.15 K	313.15 K	318.15 K	323.15 K
in 1,4-dioxane	0.000584	0.000676	0.000782	0.000899	0.00107	0.00126	0.00152	0.00177	0.00205
in DMF	0.00103	0.0012	0.00133	0.00151	0.0018	0.00209	0.00247	0.00283	0.00325
in acetonitrile	9.52e-05	0.000117	0.000141	0.00018	0.000228	0.000287	0.000345	0.000426	0.000523
in ethanol	0.000226	0.000258	0.000315	0.000386	0.000485	0.000592	0.000688	0.000845	0.000999
in ethyl acetate	0.000671	0.00078	0.000928	0.00104	0.00125	0.00142	0.00171	0.00198	0.00229
in ethylene glycol	0.000797	0.000935	0.00109	0.00121	0.00145	0.00164	0.00193	0.00225	0.00259
in isobutanol	0.000392	0.000454	0.000551	0.000663	0.000792	0.000931	0.0011	0.00127	0.00153
in isopropanol	0.00027	0.000325	0.000393	0.00047	0.000587	0.000698	0.000808	0.000973	0.00115
in methanol	0.000159	0.000192	0.000235	0.000289	0.000365	0.000434	0.000553	0.000636	0.000782
in n-butanol	0.000477	0.000536	0.00064	0.000764	0.000919	0.00111	0.00131	0.0015	0.00177
in n-propanol	0.000321	0.000385	0.000452	0.00054	0.000689	0.000836	0.000985	0.00115	0.00132
in water	0.000122	0.000146	0.000182	0.000228	0.000285	0.000362	0.000426	0.000521	0.000633
